For 11 molecules, MIC results are on record in US20090137553A1, “Thiazepine Oxazolidinones as Antibacterial Agents” (Pharmacia and Upjohn Company LLC, priority 2004, published 2009).

What all share (assay type): cell-based
One assay has as its system S. aureus (UC-76). Description: In vitro antibacterial activity (MIC), S. aureus. The conditions noted are these: Staphylococcus aureus, UC76; strain UC-76; lowest concentration preventing macroscopically visible growth; read-out: Minimum Inhibitory concentrations S. aureus (UC-76). From the text:
(§1) The in vitro antibacterial activity of the compounds of the present invention may be assessed by following procedures recommended in (1) National Committee for Clinical Laboratory Standards (January 2003), Methods for dilution antimicrobial tests for bacteria that grow aerobically, Approved Standard (6th ed), M7-A6, NCCLS, Wayne, Pa.; (2) National Committee for Clinical Laboratory Standards (March 2001), Methods for antimicrobial susceptibility testing of anaerobic bacteria, Approved Standard (5th ed), M11-A4, NCCLS, Wayne, Pa.; (3) National Committee for Clinical Laboratory Standards (January 2003), MIC testing supplemental tables, M100-S13 (for use with M7-A6), NCCLS, Wayne, Pa.; and (4) Murray P R, Baron E J, Jorgensen J H, et al. Manual of Clinical Microbiology (8th ed) Washington, D.C.: American Society for Microbiology Press, 2003. The antibacterial activity can be presented in the form of MIC value. The MIC value is the lowest concentration of drug which prevented macroscopically visible growth under the conditions of the test.

In the next assay the test system is S. pyogenes (C203). Briefly: In vitro antibacterial activity (MIC), S. pyogenes. The conditions noted are these: Streptococcus pyogenes; strain C203; lowest concentration preventing macroscopically visible growth; read-out: Minimum Inhibitory concentrations S. pyogenes (C203).
Excerpt: as §1

The subject of a further assay is S. pneumoniae (SV-1). Briefly: In vitro antibacterial activity (MIC), S. pneumoniae. The conditions noted are these: Streptococcus pneumoniae; strain SV-1; lowest concentration preventing macroscopically visible growth; read-out: Minimum Inhibitory concentrations S. pneumoniae (SV-1).
Excerpt: as §1

Each structure is given as a SMILES string. Converted amounts (≈) assume the structure as drawn.

In the case of `CNC(=O)[C@H]1CN(c2cc(F)c(N3CCC/S(=N\C(=O)C(F)(F)F)CC3)c(F)c2)C(=O)O1` (stereo in doubt) [Example 7, 3-{3,5-difluoro-4-[1-(2,2,2-trifluoro-acetylimino)-1λ^4-[1,4]thiazepan-4-yl]-phenyl}-2-oxo-oxazolidine-5-carboxylic acid methylamide], the MIC in the assay with S. aureus (UC-76), with S. pyogenes (C203) and with S. pneumoniae (SV-1) was 8 µg/mL (≈ 16.6 µM) each time.
As to `NC(=O)[C@H]1CN(c2cc(F)c(N3CCCSCC3)c(F)c2)C(=O)O1` [Example 1, 3-[3,5-difluoro-4-(1,4-thiazepan-4-yl)-phenyl]-2-oxo-oxazolidine-5-carboxylic acid amide], the figures for the MIC in the assay with S. aureus (UC-76), in the assay with S. pyogenes (C203) and in the assay with S. pneumoniae (SV-1) were 2 µg/mL (≈ 5.6 µM), 2 µg/mL (≈ 5.6 µM) and 4 µg/mL (≈ 11.2 µM), respectively.
Take `CNC(=O)[C@H]1CN(c2cc(F)c(N3CCCSCC3)c(F)c2)C(=O)O1` [Example 2, 3-[3,5-difluoro-4-(1,4-thiazepan-4-yl)-phenyl]-2-oxo-oxazolidine-5-carboxylic acid methylamide]: the values for the MIC with S. aureus (UC-76), with S. pyogenes (C203) and in the assay with S. pneumoniae (SV-1) were 2 µg/mL (≈ 5.38 µM), 2 µg/mL (≈ 5.38 µM) and 4 µg/mL (≈ 10.8 µM), respectively.
Consider `NC(=O)[C@H]1CN(c2cc(F)c(N3CCCS(=O)(=O)CC3)c(F)c2)C(=O)O1` [Example 3, 3-[4-(1,1-dioxo-1λ^6-[1,4]thiazepan-4-yl)-3,5-difluoro-phenyl]-2-oxo-oxazolidine-5-carboxylic acid amide], for which the MIC with S. aureus (UC-76) was determined as 2 µg/mL (≈ 5.14 µM); in the assay with S. pyogenes (C203), 2 µg/mL (≈ 5.14 µM); in the assay with S. pneumoniae (SV-1), 4 µg/mL (≈ 10.3 µM).
For `CNC(=O)[C@H]1CN(c2cc(F)c(N3CCCS(=O)(=O)CC3)c(F)c2)C(=O)O1` [Example 4, 3-[4-(1,1-dioxo-1λ^6-[1,4]thiazepan-4-yl)-3,5-difluoro-phenyl]-2-oxo-oxazolidine-5-carboxylic acid methylamide], the MIC worked out at 2 µg/mL (≈ 4.96 µM) in the assay on S. aureus (UC-76), 2 µg/mL (≈ 4.96 µM) in the assay with S. pyogenes (C203) and 4 µg/mL (≈ 9.92 µM) with S. pneumoniae (SV-1).
Consider `CONC(=O)[C@H]1CN(c2cc(F)c(N3CCCS(=O)(=O)CC3)c(F)c2)C(=O)O1` [Example 5, 3-[4-(1,1-dioxo-1λ^6-[1,4]thiazepan-4-yl)-3,5-difluoro-phenyl]-2-oxo-oxazolidine-5-carboxylic acid methoxy-amide], for which the MIC in the assay with S. aureus (UC-76) is 4 µg/mL (≈ 9.54 µM); with S. pyogenes (C203) it was 4 µg/mL (≈ 9.54 µM); in the assay with S. pneumoniae (SV-1) it was 8 µg/mL (≈ 19.1 µM).
With `NC(=O)[C@H]1CN(c2cc(F)c(N3CCC/S(=N\C(=O)C(F)(F)F)CC3)c(F)c2)C(=O)O1` (stereo partly drawn) [Example 6, 3-{3,5-difluoro-4-[1-(2,2,2-trifluoro-acetylimino)-114-[1,4]thiazepan-4-yl]-phenyl}-2-oxo-oxazolidine-5-carboxylic acid amide], the MIC in the assay with S. aureus (UC-76), with S. pyogenes (C203) and in the assay with S. pneumoniae (SV-1) was 8 µg/mL (≈ 17.1 µM) each time.
For the molecule `CNC(=O)[C@H]1CN(c2ccc(N3CCCSCC3)c(F)c2)C(=O)O1` [Example 9, 5(R)-3-[3-Fluoro-4-(1,4-thiazepan-4-yl)-phenyl]-2-oxo-oxazolidine-5-carboxylic acid methylamide], the values for the MIC with S. aureus (UC-76), in the assay with S. pyogenes (C203) and in the assay on S. pneumoniae (SV-1) were 8 µg/mL (≈ 22.6 µM), 4 µg/mL (≈ 11.3 µM) and 8 µg/mL (≈ 22.6 µM), respectively.
For `CNC(=O)[C@H]1CN(c2ccc(N3CCC[S+]([O-])CC3)c(F)c2)C(=O)O1` (stereo partly drawn) [Example 11, 5(R)-3-[-fluoro-4-(1-oxo-1λ^4-[1,4]thiazepan-4yl)-phenyl]-2-oxo-oxazolidine-5-carboxylic acid methyl amide], the MIC with S. aureus (UC-76) came to 2 µg/mL (≈ 5.41 µM); with S. pyogenes (C203) it was 1 µg/mL (≈ 2.71 µM); in the assay on S. pneumoniae (SV-1), 4 µg/mL (≈ 10.8 µM).
For `NC(=O)[C@H]1CN(c2ccc(N3CCC[S+]([O-])CC3)c(F)c2)C(=O)O1` (stereo partly drawn) [Example 12, 5(R)-3-[3-fluoro4-(1-oxo-1-[1,4]thiazepan-4-yl)-phenyl]-2-oxo-oxazolidine-5-carboxylic acid amide] the same measures were 2 µg/mL (≈ 5.63 µM), 1 µg/mL (≈ 2.81 µM) and 4 µg/mL (≈ 11.3 µM).
`CNC(=O)[C@H]1CN(c2ccc(N3CCCS(=O)(=O)CC3)c(F)c2)C(=O)O1` [Example 13, 5(R)-3-[4-(1,1-dioxo-1λ^6-[1,4]thiazepan-4-yl)-3-fluoro-phenyl]-2-oxo-oxazolidine-5-carboxylic acid methyl amide]: the MIC in the assay on S. aureus (UC-76) is 12 µg/mL (≈ 31.1 µM); with S. pyogenes (C203), 1 µg/mL (≈ 2.59 µM); in the assay on S. pneumoniae (SV-1), 2 µg/mL (≈ 5.19 µM).
